# Values quoted from earlier work, collected in patent US20070184040A1, “Compositions for delivery of coenzyme Q10” (priority 2006, published 2007).
smiles,measurement,value
"COC1=C(OC)C(=O)C(C/C=C(\C)CC/C=C(\C)CC/C=C(\C)CC/C=C(\C)CC/C=C(\C)CC/C=C(\C)CC/C=C(\C)CC/C=C(\C)CC/C=C(\C)CCC=C(C)C)=C(C)C1=O [CoQ10, Coenzyme Q10]","solubility in most hydrophilic solvents, such as water",very poorly soluble
